Source: ChEMBL document CHEMBL3872249, “Computer design, synthesis, and bioactivity analyses of drugs like fingolimod used in the treatment of multiple sclerosis” (Bioorg Med Chem, 2017)

Experiments:
Type in all cases: functional
SH-SY5Y [1] = assay: Effect on IL18 mRNA expression in human SH-SY5Y cells at EC10 by qPCR method relative to beta-actin
U-118-MG [2] = assay: Effect on EDN1 mRNA expression in human U118MG cells at EC10 by qPCR method relative to beta-actin
SH-SY5Y [3] = assay: Effect on CXCL11 mRNA expression in human SH-SY5Y cells at EC10 by qPCR method relative to beta-actin
SK-N-SH [4] = assay: Effect on MAPK1 mRNA expression in human SK-N-SH cells at EC10 by qPCR method relative to beta-actin
SH-SY5Y [5] = assay: Effect on MAPK1 mRNA expression in human SH-SY5Y cells at EC10 by qPCR method relative to beta-actin
U-118-MG [6] = assay: Effect on VEGFA mRNA expression in human U118MG cells at EC10 by qPCR method relative to beta-actin
SH-SY5Y [7] = assay: Effect on GRM2 mRNA expression in human SH-SY5Y cells at EC10 by qPCR method relative to beta-actin
SK-N-SH [8] = assay: Effect on IL18 mRNA expression in human SK-N-SH cells at EC10 by qPCR method relative to beta-actin
SK-N-SH [9] = assay: Effect on IL2 mRNA expression in human SK-N-SH cells at EC10 by qPCR method relative to beta-actin
U-118-MG [10] = assay: Effect on CSF1 mRNA expression in human U118MG cells at EC10 by qPCR method relative to beta-actin
SK-N-SH [11] = assay: Effect on C1S mRNA expression in human SK-N-SH cells at EC10 by qPCR method relative to beta-actin
SH-SY5Y [12] = assay: Effect on EDN1 mRNA expression in human SH-SY5Y cells at EC10 by qPCR method relative to beta-actin
SH-SY5Y [13] = assay: Effect on CRHR1 mRNA expression in human SH-SY5Y cells at EC10 by qPCR method relative to beta-actin
U-118-MG [14] = assay: Effect on GRM2 mRNA expression in human U118MG cells at EC10 by qPCR method relative to beta-actin
SK-N-SH [15] = assay: Effect on EDN1 mRNA expression in human SK-N-SH cells at EC10 by qPCR method relative to beta-actin
SH-SY5Y [16] = assay: Effect on GCGR mRNA expression in human SH-SY5Y cells at EC10 by qPCR method relative to beta-actin
SK-N-SH [17] = assay: Effect on CXCL11 mRNA expression in human SK-N-SH cells at EC10 by qPCR method relative to beta-actin
U-118-MG [18] = assay: Effect on HLA-DRB1 mRNA expression in human U118MG cells at EC10 by qPCR method relative to beta-actin
SK-N-SH [19] = assay: Effect on CD44 mRNA expression in human SK-N-SH cells at EC10 by qPCR method relative to beta-actin
SH-SY5Y [20] = assay: Effect on CYP19A1 mRNA expression in human SH-SY5Y cells at EC10 by qPCR method relative to beta-actin
SH-SY5Y [21] = assay: Effect on APP mRNA expression in human SH-SY5Y cells at EC10 by qPCR method relative to beta-actin
SH-SY5Y [22] = assay: Effect on CD44 mRNA expression in human SH-SY5Y cells at EC10 by qPCR method relative to beta-actin
SK-N-SH [23] = assay: Effect on APP mRNA expression in human SK-N-SH cells at EC10 by qPCR method relative to beta-actin
SK-N-SH [24] = assay: Effect on ITGB2 mRNA expression in human SK-N-SH cells at EC10 by qPCR method relative to beta-actin
SH-SY5Y [25] = assay: Effect on FASLG mRNA expression in human SH-SY5Y cells at EC10 by qPCR method relative to beta-actin
SH-SY5Y [26] = assay: Effect on FOXP3 mRNA expression in human SH-SY5Y cells at EC10 by qPCR method relative to beta-actin
SK-N-SH [27] = assay: Effect on PTGDR mRNA expression in human SK-N-SH cells at EC10 by qPCR method relative to beta-actin
SK-N-SH [28] = assay: Effect on GRM7 mRNA expression in human SK-N-SH cells at EC10 by qPCR method relative to beta-actin
SK-N-SH [29] = assay: Effect on AGT mRNA expression in human SK-N-SH cells at EC10 by qPCR method relative to beta-actin
SK-N-SH [30] = assay: Effect on RAF1 mRNA expression in human SK-N-SH cells at EC10 by qPCR method relative to beta-actin
SK-N-SH [31] = assay: Effect on PLP1 mRNA expression in human SK-N-SH cells at EC10 by qPCR method relative to beta-actin
SH-SY5Y [32] = assay: Effect on SOD1 mRNA expression in human SH-SY5Y cells at EC10 by qPCR method relative to beta-actin
SK-N-SH [33] = assay: Effect on TGFB2 mRNA expression in human SK-N-SH cells at EC10 by qPCR method relative to beta-actin
U-118-MG [34] = assay: Effect on S1PR3 mRNA expression in human U118MG cells at EC10 by qPCR method relative to beta-actin
U-118-MG [35] = assay: Effect on PLP1 mRNA expression in human U118MG cells at EC10 by qPCR method relative to beta-actin
SK-N-SH [36] = assay: Effect on TGFB1 mRNA expression in human SK-N-SH cells at EC10 by qPCR method relative to beta-actin
U-118-MG [37] = assay: Effect on TGFB2 mRNA expression in human U118MG cells at EC10 by qPCR method relative to beta-actin
SH-SY5Y [38] = assay: Effect on TGFB2 mRNA expression in human SH-SY5Y cells at EC10 by qPCR method relative to beta-actin
U-118-MG [39] = assay: Effect on GRM4 mRNA expression in human U118MG cells at EC10 by qPCR method relative to beta-actin
SH-SY5Y [40] = assay: Effect on CCL5 mRNA expression in human SH-SY5Y cells at EC10 by qPCR method relative to beta-actin
SK-N-SH [41] = assay: Effect on SOD1 mRNA expression in human SK-N-SH cells at EC10 by qPCR method relative to beta-actin
SK-N-SH [42] = assay: Effect on CXCL9 mRNA expression in human SK-N-SH cells at EC10 by qPCR method relative to beta-actin
U-118-MG [43] = assay: Effect on SOD1 mRNA expression in human U118MG cells at EC10 by qPCR method relative to beta-actin
U-118-MG [44] = assay: Effect on TNFRSF1B mRNA expression in human U118MG cells at EC10 by qPCR method relative to beta-actin

CCCCCCCCn1nnnc1CCC(N)(CO)CO.Cl
fold change (FC) (SH-SY5Y [1]): -3.9685
fold change (FC) (U-118-MG [2]): 5.5464
fold change (FC) (SH-SY5Y [3]): -5.0428
fold change (FC) (SK-N-SH [4]): -10.5515
fold change (FC) (SH-SY5Y [5]): -2.8875
fold change (FC) (U-118-MG [6]): -4.4402
fold change (FC) (SH-SY5Y [7]): -4.9647
fold change (FC) (SK-N-SH [8]): -5.1137
fold change (FC) (SK-N-SH [9]): -4.9224
fold change (FC) (U-118-MG [10]): -4.2226
fold change (FC) (SK-N-SH [11]): -5.1582
fold change (FC) (SH-SY5Y [12]): 7.826
fold change (FC) (SH-SY5Y [13]): 4.2103
fold change (FC) (U-118-MG [14]): -3.2823
fold change (FC) (SK-N-SH [15]): 7.7711
fold change (FC) (SH-SY5Y [16]): -4.2885
fold change (FC) (SK-N-SH [17]): -3.5538

CCCCCCCCc1ccc(CCC(N)(CO)CO)cc1 [FINGOLIMOD]
fold change (FC) (U-118-MG [18]): -3.4313
fold change (FC) (SK-N-SH [19]): -4.3753
fold change (FC) (SH-SY5Y [20]): -5.8869
fold change (FC) (SH-SY5Y [21]): -10.004
fold change (FC) (SH-SY5Y [22]): -4.0629
fold change (FC) (SK-N-SH [23]): -8.0801
fold change (FC) (SK-N-SH [24]): -6.3947
fold change (FC) (SH-SY5Y [25]): -3.0525
fold change (FC) (SH-SY5Y [26]): -5.5022
fold change (FC) (SK-N-SH [27]): -4.3981
fold change (FC) (SK-N-SH [28]): -6.2306
fold change (FC) (SK-N-SH [29]): 5.63
fold change (FC) (SK-N-SH [30]): -5.2666

CCCCCCCCn1nnnc1-c1ccc(C(O)CC(N)(CO)CO)cc1.Cl (centres undefined)
fold change (FC) (SK-N-SH [31]): 4.9417
fold change (FC) (SH-SY5Y [32]): -3.4032
fold change (FC) (SK-N-SH [33]): -4.9847
fold change (FC) (U-118-MG [34]): -4.6278
fold change (FC) (U-118-MG [35]): 3.4958
fold change (FC) (SK-N-SH [36]): -5.3267
fold change (FC) (U-118-MG [37]): -5.915
fold change (FC) (SH-SY5Y [38]): -2.8716
fold change (FC) (U-118-MG [39]): -5.0773
fold change (FC) (SH-SY5Y [40]): -3.3855
fold change (FC) (SK-N-SH [41]): -3.3929
fold change (FC) (SK-N-SH [42]): -4.8484
fold change (FC) (U-118-MG [43]): 5.2803
fold change (FC) (U-118-MG [44]): -3.1207
